Measured values from patent US12404261B2, “Compounds and compositions for treating conditions associated with cGAS” (Novartis AG, priority 2020, dated 2025).

target: human truncated cGAS enzyme (147-522 human cGAS) (Homo sapiens (Human), UniProt Q8N884); test: Quantification of cGAS protein inhibition (cGAMP formation measured by LC-MS/MS); type: biochemical; settings: reported for the potential mixture in solution of co-existing tautomers and/or racemates
Description: A reagent buffer was prepared in filtered and autoclaved water according to the following: • 50 mM Tris-buffer pH 7.5 (1 M Tris-buffer pH 7.5, Invitrogen, Cat. No. 15567-027); • 50 mM NaCl (5 M NaCl, Sodium Chloride Solution, Sigma, 59222C-); • 5 mM MgCl2 (1 M MgCl2, Sigma, M1028); • 0.1 mM ZnCl2 (Zinc Chloride [7646-85-7], powder, Cell Culture Tested, Sigma, Z-0152); and • 0.001% Tween 20 (TWEEN 20, Sigma Aldrich, P1379-).
A buffer for the cGAS enzyme was prepared in filtered and autoclaved water according to the following: • 50 mM Tris-buffer pH 7.5; • 5 mM MgCl2; and • 0.001% Tween 20.
Compounds were dispensed to a […]. The human truncated cGAS enzyme (4.2 mg/mL 147-522 human cGAS, MW 43,909 g/mol) was stored in 50 mM Tris, 500 mM NaCl, 5% (v/v) glycerol at pH 8 and diluted in the cGAS buffer enzyme shortly before use. The enzyme solution was transferred into the reagent buffer to give a final concentration of 30 nM. The reaction was started by mixing the enzyme with ISD (a 45 bp double stranded DNA, MW 27,670 g/mol, 5 mM), GTP and ATP to a final concentration of 5 μM, 0.5 mM and 0.5 mM respectively in a final volume of 10 μl. The reaction plates were then centrifuged at 1000 rpm for 1 minute and incubated at room temperature for 1 h. After 1 h of incubation, [^5Ns]-2′3′-cGAMP to a final concentration of 200 nM and 30 μL of 100% acetonitrile/0.175% of TFA were added to the reaction mixture. The plates were centrifuged at 1000 rpm for 1 minute before being sealed for 3 seconds at 170° C. using a ThermoScientific sealer (ALPS™ 50V) and an aluminum sealing cover (Pierce Seal, 4titude, Product Code: 4TI-0531).
The concentration of cGAMP was measured on a LC-MS/MS system consisting of a THERMO Dionex Ultimate LC system with a high pressure pump, an autosampler, a column heating compartment (Reinach, Switzerland) and a SCIEX Triple Quad 5500 (Framingham, MA, USA) mass spectrometer for detection. The sample plates were centrifuged for 10 minutes at 2000 rpm. Up to three plates were placed in the autosampler for injection. An aliquot of 10 μL of each sample was injected on an XBridge BEH Amide 3.5 μm, 2.1×50 mm column (P/N 186004859) with an XBridge BEH Amide 5 μm 2.1×5 mm VanGuard Cartridge (P/N 186007760) pre-column (both WATERS, MA, USA) held at 40° C. An isocratic flow of 1.0 mL/min solvent (60% ACN, 8 mM ammonium acetate, 5 mM ammonium hydroxide, 0.04% acetic acid) was applied and sprayed into the ion source of the mass spectrometers. The MS parameters were optimized based on the properties of the compounds to be detected and run in positive multi-reaction mode (MRM) based on the mass transitions. LC and MS parameters were also optimized to allow for a sample-to-sample measuring time of approximately 75 sec and a run time of 8 hours per 384-well plate. All data were analyzed with Excel; and the dose response curves were generated using the auto fitting function of XLfit. The IC50 was determined by plotting the cGAMP concentration ratio (cGAMP divided by the internal standard [^15Ns]-2′3′-cGAMP) versus the concentration of compound.

human truncated cGAS enzyme (147-522 human cGAS), sequence (Q8N884 147-522): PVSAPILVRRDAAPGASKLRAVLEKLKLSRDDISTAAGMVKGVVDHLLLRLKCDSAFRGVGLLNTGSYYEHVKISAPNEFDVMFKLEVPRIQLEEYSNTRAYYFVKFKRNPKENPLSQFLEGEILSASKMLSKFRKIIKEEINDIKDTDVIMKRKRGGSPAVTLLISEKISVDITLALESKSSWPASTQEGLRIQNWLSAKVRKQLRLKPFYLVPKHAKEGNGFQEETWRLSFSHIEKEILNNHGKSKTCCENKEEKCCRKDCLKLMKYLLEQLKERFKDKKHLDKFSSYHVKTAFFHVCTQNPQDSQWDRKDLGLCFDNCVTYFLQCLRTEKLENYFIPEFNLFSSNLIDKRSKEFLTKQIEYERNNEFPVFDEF

Row | Compound | IC50
1 | COCC(c1nnc(-c2c(-n3ccnc3)c3cc(OC)c(Cl)c(F)c3n2C)[nH]1)N1CCOCC1 (stereo not shown) [Example 126, 4-(1-(5-(6-chloro-7-fluoro-3-(1H-imidazol-1-yl)-5-methoxy-1-methyl-1H-indol-2-yl)-4H-1,2,4-triazol-3-yl)-2-methoxyethyl)morpholine] | 411 nM
2 | COCC(c1nnc(-c2c(-n3ccnc3)c3cc(OC)c(Cl)c(F)c3n2C)[nH]1)N1CCC1 (stereo not shown) [Example 127, 2-(5-(1-(azetidin-1-yl)-2-methoxyethyl)-4H-1,2,4-triazol-3-yl)-6-chloro-7-fluoro-3-(1H-imidazol-1-yl)-5-methoxy-1-methyl-1H-indole] | 487 nM
3 | COCCN(C)C(C)c1nnc(-c2c(-n3ccnc3)c3cc(OC)c(Cl)c(F)c3n2C)[nH]1 (stereo not shown) [Example 128, 1-(5-(6-chloro-7-fluoro-3-(1H-imidazol-1-yl)-5-methoxy-1-methyl-1H-indol-2-yl)-4H-1,2,4-triazol-3-yl)-N-(2-methoxyethyl)-N-methylethan-1-amine] | 454 nM
4 | COc1cc2c(-n3ccnc3)c(-c3nnc(CCO)[nH]3)n(C)c2cc1Cl [Example 119, 2-(5-(6-chloro-3-(1H-imidazol-1-yl)-5-methoxy-1-methyl-1H-indol-2-yl)-4H-1,2,4-triazol-3-yl)ethan-1-ol] | 990 nM
5 | FC(F)(F)c1nnc(-c2[nH]c3c(Cl)c(Cl)ccc3c2-n2ccnc2)[nH]1 [Example 106, 6,7-dichloro-3-(1H-imidazol-1-yl)-2-(5-(trifluoromethyl)-4H-1,2,4-triazol-3-yl)-1H-indole] | 95 nM
6 | N#Cc1c(Cl)ccc2c(-n3ccnc3)c(-c3nnc(C(F)(F)F)[nH]3)[nH]c12 [Example 110, 6-chloro-3-(1H-imidazol-1-yl)-2-(5-(trifluoromethyl)-4H-1,2,4-triazol-3-yl)-1H-indole-7-carbonitrile] | 226 nM

same assay, conditions: reported for the potential mixture of co-existing tautomers and/or racemates

Row | Compound | IC50
7 | COCC(F)c1nnc(-c2[nH]c3c(Cl)c(Cl)ccc3c2-c2cn[nH]c2)[nH]1 (stereo not shown) [Example 10, 6,7-dichloro-2-(5-(1-fluoro-2-methoxyethyl)-4H-1,2,4-triazol-3-yl)-3-(1H-pyrazol-4-yl)-1H-indole] | 74 nM
8 | Oc1cc(-c2c(-c3nnc(C(F)(F)F)[nH]3)[nH]c3c(Cl)c(Cl)ccc23)no1 [Example 77, 3-(6,7-dichloro-2-(5-(trifluoromethyl)-4H-1,2,4-triazol-3-yl)-1H-indol-3-yl)isoxazol-5-ol] | 1850 nM
9 | Cn1c(-c2nnc(C(F)(F)F)[nH]2)c(-c2cn[nH]c2)c2ccc(Cl)c(Cl)c21 [Example 12, 6,7-dichloro-1-methyl-3-(1H-pyrazol-4-yl)-2-(5-(trifluoromethyl)-4H-1,2,4-triazol-3-yl)-1H-indole] | 48 nM
10 | COCC(F)(F)c1nnc(-c2c(-n3ccnc3)c3cc(OC)c(Cl)c(C#N)c3n2C)[nH]1 [Example 55, 6-chloro-2-(5-(1,1-difluoro-2-methoxyethyl)-4H-1,2,4-triazol-3-yl)-3-(1H-imidazol-1-yl)-5-methoxy-1-methyl-1H-indole-7-carbonitrile] | 55 nM
11 | COc1cc2c(-n3ccnc3)c(-c3nnc(OCCO)[nH]3)n(C)c2c(F)c1Cl [Example 94, 2-((5-(6-chloro-7-fluoro-3-(1H-imidazol-1-yl)-5-methoxy-1-methyl-1H-indol-2-yl)-4H-1,2,4-triazol-3-yl)oxy)ethan-1-ol] | 72 nM
12 | COc1cc2c(-c3cn[nH]c3)c(-c3nnc(C(C)(F)F)[nH]3)n(C)c2c(F)c1Cl [Example 68, 6-chloro-2-(5-(1,1-difluoroethyl)-4H-1,2,4-triazol-3-yl)-7-fluoro-5-methoxy-1-methyl-3-(1H-pyrazol-4-yl)-1H-indole] | 33 nM
13 | COc1cc2c(-n3ccnc3)c(-c3nnc(CS(C)(=O)=O)[nH]3)n(C)c2c(F)c1Cl [Example 56, 6-Chloro-7-fluoro-3-(1H-imidazol-1-yl)-5-methoxy-1-methyl-2-(5-((methylsulfonyl)methyl)-4H-1,2,4-triazol-3-yl)-1H-indole] | 56 nM
14 | COc1cc2c(-n3ccnc3)c(-c3nnc(C(=O)N4CCOCC4)[nH]3)n(C)c2c(F)c1Cl [Example 42, (5-(6-chloro-7-fluoro-3-(1H-imidazol-1-yl)-5-methoxy-1-methyl-1H-indol-2-yl)-4H-1,2,4-triazol-3-yl)(morpholino)methanone] | 63 nM
15 | COc1cc2c(-n3ccnc3)c(-c3nnc(F)[nH]3)[nH]c2c(F)c1Cl [Example 87, 6-chloro-7-fluoro-2-(5-fluoro-4H-1,2,4-triazol-3-yl)-3-(1H-imidazol-1-yl)-5-methoxy-1H-indole] | 43 nM
16 | COc1cc2c(-n3ccnc3)c(-c3nnc(C(=O)N4CCC(O)C4)[nH]3)n(C)c2c(F)c1Cl (stereo not shown) [Example 43, (5-(6-chloro-7-fluoro-3-(1H-imidazol-1-yl)-5-methoxy-1-methyl-1H-indol-2-yl)-4H-1,2,4-triazol-3-yl)(3-hydroxypyrrolidin-1-yl)methanone] | 61 nM
17 | COc1cc2c(-n3ccnc3)c(-c3nnc(CSC)[nH]3)n(C)c2c(F)c1Cl [Example 50, 6-Chloro-7-fluoro-3-(1H-imidazol-1-yl)-5-methoxy-1-methyl-2-(5-((methylthio)methyl)-4H-1,2,4-triazol-3-yl)-1H-indole] | 57 nM
18 | Fc1ccc2c(-c3cn[nH]c3)c(-c3nnc(C(F)(F)F)[nH]3)[nH]c2c1F [Example 14, 6,7-difluoro-3-(1H-pyrazol-4-yl)-2-(5-(trifluoromethyl)-4H-1,2,4-triazol-3-yl)-1H-indole] | 196 nM
19 | COCC(F)(F)c1nnc(-c2[nH]c3c(F)c(Cl)c(OC)cc3c2-c2cn[nH]c2)[nH]1 [Example 65, 6-chloro-2-(5-(1,1-difluoro-2-methoxyethyl)-4H-1,2,4-triazol-3-yl)-7-fluoro-5-methoxy-3-(1H-pyrazol-4-yl)-1H-indole] | 31 nM
20 | COc1cc2c(-n3ccnc3)c(-c3nnc(C(O)C(F)F)[nH]3)n(C)c2c(F)c1Cl (stereo not shown) [Example 96, 1-(5-(6-chloro-7-fluoro-3-(1H-imidazol-1-yl)-5-methoxy-1-methyl-1H-indol-2-yl)-4H-1,2,4-triazol-3-yl)-2,2-difluoroethan-1-ol] | 30 nM
21 | COc1cc2c(-c3cn[nH]c3)c(-c3nnc(C(C)N(C)C)[nH]3)n(C)c2c(F)c1Cl (stereo not shown) [Example 80, 1-(5-(6-chloro-7-fluoro-5-methoxy-1-methyl-3-(1H-pyrazol-4-yl)-1H-indol-2-yl)-4H-1,2,4-triazol-3-yl)-N,N-dimethylethan-1-amine] | 39 nM
22 | CCOC(=O)c1nnc(-c2[nH]c3cc(Cl)c(OC)cc3c2-c2cn[nH]c2)[nH]1 [Example 28, ethyl 5-(6-chloro-5-methoxy-3-(1H-pyrazol-4-yl)-1H-indol-2-yl)-4H-1,2,4-triazole-3-carboxylate] | 75 nM
23 | COc1cc2c(-n3ccnc3)c(-c3nnc(N(C)CCO)[nH]3)n(C)c2c(F)c1Cl [Example 90, 2-((5-(6-chloro-7-fluoro-3-(1H-imidazol-1-yl)-5-methoxy-1-methyl-1H-indol-2-yl)-4H-1,2,4-triazol-3-yl)(methyl)amino)ethan-1-ol] | 93 nM
24 | COCC(O)c1nnc(-c2c(-c3cn[nH]c3)c3cc(OC)c(Cl)c(F)c3n2C)[nH]1 (stereo not shown) [Example 64, 1-(5-(6-chloro-7-fluoro-5-methoxy-1-methyl-3-(1H-pyrazol-4-yl)-1H-indol-2-yl)-4H-1,2,4-triazol-3-yl)-2-methoxyethan-1-ol] | 52 nM
25 | COc1cc2c(-c3cn[nH]c3)c(-c3nnc(N(C)CCO)[nH]3)n(C)c2c(F)c1Cl [Example 63, 2-((5-(6-chloro-7-fluoro-5-methoxy-l-methyl-3-(1H-pyrazol-4-yl)-1H-indol-2-yl)-4H-1,2,4-triazol-3-yl)(methyl)amino)ethan-1-ol] | 54 nM
